The values below come from ChEMBL document CHEMBL1158671, “Microbial transformations of hypolipemic E-guggulsterone” (J Nat Prod, 1998).

For experiment [1], the system named is Shigella boydii. As to the kind of experiment: Antibacterial activity against Shigella boydii. It is filed as functional, organism-based.
Experiment [2] relates to Corynebacterium diphtheriae. The experiment in a line: Antibacterial activity against Corynebacterium diphtheriae. It is filed as functional, organism-based.
The subject of experiment [3] is NCI-H226. The experiment in a line: Cytotoxicity against human NCI-H226 cells. It is filed as functional, cell-based.
The subject of experiment [4] is Pseudomonas aeruginosa. As to the kind of experiment: Antibacterial activity against Pseudomonas aeruginosa. It is filed as functional, organism-based.
Experiment [5] concerns Escherichia coli. As to the kind of experiment: Antibacterial activity against Escherichia coli. It is filed as functional, organism-based.

Active and inactive are the calls of the source. The calls are words filed in the database; no cut-off is given here.

On to `C/C=C1/C(=O)C[C@H]2[C@@H]3CCC4=CC(=O)CC[C@]4(C)[C@H]3CC[C@]12C`, for which the result in experiment [1], in experiment [2], in experiment [4] and in experiment [5] was inactive. Also, the result in experiment [3] was Active.
Consider `C/C=C1/C(=O)C[C@H]2[C@@H]3[C@@H](O)CC4=CC(=O)CC[C@]4(C)[C@H]3CC[C@]12C`, for which the result in experiment [1], in experiment [2], in experiment [4] and in experiment [5] was Active.
